Measurements taken from publication PMC11240954 (International Journal of Molecular Sciences, 2024).
Read-outs that look alike come from different tables or passages of the source. Peptide text beside a SMILES is read from it.

Key:
Human Adenovirus-5 [1] = system: Human Adenovirus-5
Influenza A Virus (H3N2) [2] = system: Influenza A Virus (H3N2)
MDCK cells = details: dog
Influenza A Virus (H1N1) [3] = system: Influenza A Virus (H1N1)
Vero cells = details: African green monkey
Murine Norovirus-1 [4] = system: Murine Norovirus-1
adenovirus = details: 111 µM LL-37 ref 60; cited from earlier work
in vitro [5] = details: African green monkey
in vitro [6] = details: dog
Influenza A Virus (H1N1) [7] = assay: microbe, parasite or virus in culture; details: H1N1, MDCK, 3 h, read-out: IC50 Influenza A Virus (H1N1)/MDCK
Murine Norovirus-1 [8] = assay: microbe, parasite or virus in culture; details: Norwalk virus, in Mus musculus, 3 h, read-out: IC50 Murine Norovirus-1/Raw 246.7
Influenza A Virus (H3N2) [9] = assay: microbe, parasite or virus in culture; details: H3N2, MDCK, 3 h, read-out: IC50 Influenza A Virus (H3N2)/MDCK
Human Adenovirus-5 [10] = assay: microbe, parasite or virus in culture; details: Human mastadenovirus C, Vero, 3 h, read-out: IC50 Human Adenovirus-5/Vero
H1N1 = assay: Transmission electron microscopy of treated virus; design: species or system influenza virus H1N1 A/PR/8/34; details: TEM, 2 h exposure; untreated 120 nm
Protocol: (§1) The viruses were exposed to the peptide/mimics for 2 h at 37 °C. Following this, 10 µL of the treated mixture was applied onto a glow-discharged carbon-coated 200 mesh copper grid and left to evaporate for 5 min. Subsequently, the sample was stained with 2% phosphotungstic acid (pH 4.5) for 1 min to enhance contrast. After air-drying, the grids were examined using an FEI Tecnai G2 20 transmission electron microscope (TEM).

H3N2 virus = assay: Transmission electron microscopy of treated virus; design: species or system influenza virus H3N2 A/Hong Kong/8/68; details: 2 h exposure
Protocol: as §1

[11] = Circular dichroism conformational analysis; format: physicochemical; details: 125, 250, 500 µM
Protocol: Circular dichroism (CD) analysis was conducted using the Jasco J-1500 spectropolarimeter to assess the secondary structure of peptides and mimics. The samples were placed in a quartz cuvette with a path length of 0.1 cm (Fisher brand, Thermo Fisher Scientific Aust Pty Ltd.). Spectra were recorded in the range of 185–260 nm at a scan speed of 200 nm/min, averaging 4 scans. The impact of the solvents milliQ water or 30 mM SDS on Mel4 and mimic 758 was evaluated at three concentrations: 500 µM, 250 µM, and 125 µM. Data were averaged, and the spectrum of a sample-free control was subtracted.

[12] = read-out: IC50 Human Adenovirus-5/Vero

Row | SMILES | SI Influenza A Virus (H3N2)/MDCK (Influenza A Virus (H3N2) [2]) | SI Influenza A Virus (H1N1)/MDCK (Influenza A Virus (H1N1) [3]) | IC50 (Influenza A Virus (H1N1) [7]) [µM] | IC50 (Murine Norovirus-1 [8]) [µM] | IC50 (Influenza A Virus (H3N2) [9]) [µM] | IC50 (Human Adenovirus-5 [10]) [µM] | CC50 (in vitro [6]; CC50 (H1N1/MDCK)) [µM] | CC50 (in vitro [6]; CC50 (H3N2/MDCK)) [µM] | other results
1 | NCCCCC(N)C(=O)NCCNC(=O)C(Cc1c[nH]c2ccccc12)NC(=O)c1cc(Br)ccc1NC(=O)c1ccc(-c2ccccc2)cc1 (stereo not drawn) [4-BIPL] | 1.2 | 1.2 |  |  |  |  |  |  | IC50 (Human Adenovirus-5 [1]; [12]): > 62.5 µM; IC50 (Influenza A Virus (H3N2) [2]; read-out: IC50 Influenza A Virus (H3N2)/MDCK): 10.4 µM; CC50 (MDCK cells): 12.8 µM; IC50 (Influenza A Virus (H1N1) [3]; read-out: IC50 Influenza A Virus (H1N1)/MDCK): 10.3 µM; CC50 (Vero cells): 38.8 µM; IC50 (Murine Norovirus-1 [4]; read-out: IC50 Murine Norovirus-1/Raw 246.7): > 62.5 µM
2 | CC[C@H](C)[C@H](NC(=O)[C@H](CCCCN)NC(=O)[C@H](CCC(=O)O)NC(=O)[C@H](CCCCN)NC(=O)[C@H](CO)NC(=O)[C@H](CCCCN)NC(=O)[C@H](CCCNC(=N)N)NC(=O)[C@H](Cc1ccccc1)NC(=O)[C@H](Cc1ccccc1)NC(=O)[C@H](CC(=O)O)NC(=O)CNC(=O)[C@H](CC(C)C)NC(=O)[C@@H](N)CC(C)C)C(=O)NCC(=O)N[C@@H](CCCCN)C(=O)N[C@@H](CCC(=O)O)C(=O)N[C@@H](Cc1ccccc1)C(=O)N[C@@H](CCCCN)C(=O)N[C@@H](CCCNC(=N)N)C(=O)N[C@H](C(=O)N[C@H](C(=O)N[C@@H](CCC(N)=O)C(=O)N[C@@H](CCCNC(=N)N)C(=O)N[C@H](C(=O)N[C@@H](CCCCN)C(=O)N[C@@H](CC(=O)O)C(=O)N[C@@H](Cc1ccccc1)C(=O)N[C@@H](CC(C)C)C(=O)N[C@@H](CCCNC(=N)N)C(=O)N[C@@H](CC(N)=O)C(=O)N[C@@H](CC(C)C)C(=O)N[C@H](C(=O)N1CCC[C@H]1C(=O)N[C@@H](CCCNC(=N)N)C(=O)N[C@H](C(=O)N[C@@H](CCC(=O)O)C(=O)N[C@@H](CO)C(=O)O)[C@@H](C)O)C(C)C)[C@@H](C)CC)C(C)C)[C@@H](C)CC [LL-37, reference compound] |  |  |  |  |  |  |  |  | effect on adenovirus (adenovirus): no effect; IC50 Human Adenovirus-5/Vero (Human Adenovirus-5 [1]): no activity; IC50 (Human Adenovirus-5 [1]; 3 h): > 125 µM; IC50 (Influenza A Virus (H3N2) [2]; Virus, 3 h): > 500 µM; IC50 (Influenza A Virus (H1N1) [3]; Virus, 3 h): > 500 µM; IC50 (Murine Norovirus-1 [4]; 3 h): 4.2 µM
3 | N=C(N)NCCC[C@H](NC(=O)[C@H](CCCNC(=N)N)NC(=O)[C@H](CCCNC(=N)N)NC(=O)[C@H](CCCNC(=N)N)NC(=O)CNC(=O)CNC(=O)[C@H](CCCNC(=N)N)NC(=O)[C@H](CCCNC(=N)N)NC(=O)[C@H](CCCNC(=N)N)NC(=O)[C@H](CCCNC(=N)N)NC(=O)[C@H](CCCNC(=N)N)NC(=O)[C@H](CCCNC(=N)N)NC(=O)[C@H](CCCCN)NC(=O)[C@H](CCCNC(=N)N)NC(=O)[C@H](CCCCN)NC(=O)[C@H](CC(N)=O)NC(=O)[C@@H](N)CCCCN)C(=O)O [Mel4] (H-KNKRKRRRRRRGGRRRR-OH) |  |  |  |  |  |  |  |  | IC50 (Human Adenovirus-5 [1]; 3 h): 47.4 µM; IC50 (Influenza A Virus (H3N2) [2]; Virus, 3 h): > 500 µM; IC50 (Influenza A Virus (H1N1) [3]; Virus, 3 h): > 500 µM; CC50 at 24 h (in vitro [5]): 47.6 µM; CC50 (in vitro [6]): 12.7 µM; IC50 (Murine Norovirus-1 [4]; 3 h): 8.6 µM
4 | CC[C@H](C)[C@H](NC(=O)[C@H](Cc1c[nH]c2ccccc12)NC(=O)[C@H](CO)NC(=O)[C@@H](NC(=O)[C@H](CC(C)C)NC(=O)[C@@H](N)[C@@H](C)O)[C@@H](C)CC)C(=O)N[C@@H](CCCCN)C(=O)N[C@@H](CC(N)=O)C(=O)N[C@@H](CCCCN)C(=O)N[C@@H](CCCNC(=N)N)C(=O)N[C@@H](CCCCN)C(=O)N[C@@H](CCC(N)=O)C(=O)N[C@@H](CCCNC(=N)N)C(=O)N1CCC[C@H]1C(=O)N[C@@H](CCCNC(=N)N)C(=O)N[C@H](C(=O)N[C@@H](CO)C(=O)N[C@@H](CCCNC(=N)N)C(=O)N[C@@H](CCCNC(=N)N)C(=O)N[C@@H](CCCNC(=N)N)C(=O)N[C@@H](CCCNC(=N)N)C(=O)N[C@@H](CCCNC(=N)N)C(=O)N[C@@H](CCCNC(=N)N)C(=O)NCC(=O)NCC(=O)N[C@@H](CCCNC(=N)N)C(=O)N[C@@H](CCCNC(=N)N)C(=O)N[C@@H](CCCNC(=N)N)C(=O)N[C@@H](CCCNC(=N)N)C(=O)O)C(C)C [Melimine] (H-TLISWIKNKRKQRPRVSRRRRRRGGRRRR-OH) |  |  |  |  |  |  |  |  | IC50 (Human Adenovirus-5 [1]; 3 h): > 125 µM; IC50 (Influenza A Virus (H3N2) [2]; Virus, 3 h): > 500 µM; IC50 (Influenza A Virus (H1N1) [3]; Virus, 3 h): > 500 µM; CC50 at 24 h (in vitro [5]): 14.5 µM; CC50 (in vitro [6]): 28.1 µM; IC50 (Murine Norovirus-1 [4]; 3 h): 4.8 µM
5 | NCCCCC(N)C(=O)NCCNC(=O)C(Cc1c[nH]c2ccccc12)NC(=O)c1cc(Br)ccc1NC(=O)c1ccc2ccccc2c1 (stereo not drawn) [NAPL] | 10.6 | 10.6 | 10.5 | > 62.5 | 10.5 | 59.3 | 112 | 112 | 
6 | NCCNC(=O)C(Cc1c[nH]c2ccccc12)NC(=O)c1cc(-c2ccccc2-c2ccccc2)ccc1N (stereo not drawn) [Sau-22] | 14.8 | 11.4 | 6.93 | > 62.5 | 5.34 | > 62.5 | 79.4 | 79.4 | 
7 | NCCNC(=O)C(Cc1c[nH]c2ccccc12)NC(=O)c1cc(-c2ccc3ccccc3c2)ccc1N (stereo not drawn) [compound 610] | 9 | 14.1 | 2.35 | > 62.5 | 3.7 | > 62.5 | 33.3 | 33.3 | average particle size of the virus after treatment (H1N1): 48 nm; effect on virus particle (TEM) (H3N2 virus): reduction in size and disruption to the envelop and spike proteins
8 | NCCNC(=Nc1ccccc1)NCCNC(=O)C(Cc1c[nH]c2ccccc12)NC(=O)c1cc(Br)ccc1NC(=O)c1ccc2ccccc2c1 (stereo not drawn) [compound 758] | 15.8 | 11.9 | 12.3 | > 62.5 | 9.3 | > 62.5 | 147 | 147 | secondary structure by CD in SDS ([11]; 30 mM SDS (membrane mimetic)): beta sheet-like structure; secondary structure by CD in water ([11]; milliQ water): beta sheet-like structure
9 | NCCN=C(NCCN)NCCNC(=O)C(Cc1c[nH]c2ccccc12)NC(=O)c1cc(Br)ccc1NC(=O)c1ccc2ccccc2c1 (stereo not drawn) [compound 1083] | 9.05 | 8.7 | 28.5 | > 62.5 | 27.7 | 47.2 | 250 | 250 | IC50 (Human Adenovirus-5 [1]; [12]): 45.1 µM
10 | N=C(N)NCCNC(=O)C(Cc1ccccc1)NC(=O)c1cc(Br)ccc1NC(=O)c1ccc2ccccc2c1 (stereo not drawn) [compound 1091] | 5.2 | 5.5 | 23.1 | > 62.5 | 24.3 | > 62.5 | 128 | 128 | 
11 | NCCNC(=Nc1ccccc1)NCCNC(=O)C(Cc1ccccc1)NC(=O)c1cc(Br)ccc1NC(=O)c1ccc2ccccc2c1 (stereo not drawn) [compound 1096] | 1.9 | 2.1 | 22.2 | > 62.5 | 24 | > 62.5 | 47.2 | 47.2 | 
